This passage reports TGI results from PubChem BioAssay (NCI).

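1) Cells in 96-well plates. 2) Compound, 48 h, 5 concentrations. 3) Linear interpolation between surrounding doses. 4) Unreached endpoint = highest concentration. Definition used: TGI = concentration required for complete inhibition of growth.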 A value given as a limit tells only on which side of the number the result lay.

The first test has as its system RPMI-8226 leukemia. The test can be described thus: NCI anticancer screen, dose series, 48 h.
As to `O=c1oc2ccccc2cc1-c1cn2ccccc2n1`, the TGI was 47.3 µM.

`[N-]=[N+]=NC1C(O)C(CO)OC1n1ccc(=O)[nH]c1=O` (stereo not given) had a TGI of more than 875 µM.

In turn, `O=C(Nc1nncs1)NS(=O)(=O)n1c(=S)sc2ccccc21` showed a TGI of more than 100 µM.

Take `COC(=O)CC1C=CC(C)(OC)OO1` (stereo not given): the TGI was more than 100 µM.

As for `COC(=O)C1=C(C(=O)Nc2cccnc2Cl)N(c2ccc(OC)cc2[N+](=O)[O-])C(c2ccc(C)cc2)=CC1c1ccc(OC)cc1OC` (stereo not given), the TGI is 21.5 µM.

The subject of the next test is HOP-62 NSCLC. The test can be described thus: NCI anticancer screen, dose series, 48 h.
Molecule `O=c1oc2ccccc2cc1-c1cn2ccccc2n1` showed a TGI of 14.8 µM.

In turn, `[N-]=[N+]=NC1C(O)C(CO)OC1n1ccc(=O)[nH]c1=O` (stereo not given) gave a TGI of more than 875 µM.

`O=C(Nc1nncs1)NS(=O)(=O)n1c(=S)sc2ccccc21` came in with a TGI of more than 100 µM.

Consider `COC(=O)CC1C=CC(C)(OC)OO1` (stereo not given), for which the TGI was more than 100 µM.

Take `COC(=O)C1=C(C(=O)Nc2cccnc2Cl)N(c2ccc(OC)cc2[N+](=O)[O-])C(c2ccc(C)cc2)=CC1c1ccc(OC)cc1OC` (stereo not given): the TGI was found to be 68 µM.

For the next test, the system named is MDA-MB-231 breast. The test can be described thus: NCI anticancer screen, dose series, 48 h.
For the molecule `O=c1oc2ccccc2cc1-c1cn2ccccc2n1`, the TGI came out at 18.5 µM.

With `[N-]=[N+]=NC1C(O)C(CO)OC1n1ccc(=O)[nH]c1=O` (stereo not given), the TGI is more than 875 µM.

Molecule `O=C(Nc1nncs1)NS(=O)(=O)n1c(=S)sc2ccccc21` displayed a TGI of more than 100 µM.

In turn, `COC(=O)CC1C=CC(C)(OC)OO1` (stereo not given) showed a TGI of more than 100 µM.

The molecule `COC(=O)C1=C(C(=O)Nc2cccnc2Cl)N(c2ccc(OC)cc2[N+](=O)[O-])C(c2ccc(C)cc2)=CC1c1ccc(OC)cc1OC` (stereo not given) gave a TGI of 62.1 µM.

The next test has as its system HT29 colon. Kind of test: NCI anticancer screen, dose series, 48 h.
With `O=c1oc2ccccc2cc1-c1cn2ccccc2n1`, the TGI was found to be 51.7 µM.

`[N-]=[N+]=NC1C(O)C(CO)OC1n1ccc(=O)[nH]c1=O` (stereo not given) came in with a TGI of more than 875 µM.

`O=C(Nc1nncs1)NS(=O)(=O)n1c(=S)sc2ccccc21` gave a TGI of more than 100 µM.

Take `COC(=O)CC1C=CC(C)(OC)OO1` (stereo not given): the TGI is more than 100 µM.

In turn, `COC(=O)C1=C(C(=O)Nc2cccnc2Cl)N(c2ccc(OC)cc2[N+](=O)[O-])C(c2ccc(C)cc2)=CC1c1ccc(OC)cc1OC` (stereo not given) gave a TGI of 47.9 µM.

Another test deals with SN12C renal. The test can be described thus: NCI anticancer screen, dose series, 48 h.
Consider `O=c1oc2ccccc2cc1-c1cn2ccccc2n1`, for which the TGI is 17.7 µM.

Turning to `[N-]=[N+]=NC1C(O)C(CO)OC1n1ccc(=O)[nH]c1=O` (stereo not given), the TGI is more than 875 µM.

`O=C(Nc1nncs1)NS(=O)(=O)n1c(=S)sc2ccccc21` registered a TGI of more than 100 µM.

The molecule `COC(=O)CC1C=CC(C)(OC)OO1` (stereo not given) displayed a TGI of more than 100 µM.

In the case of `COC(=O)C1=C(C(=O)Nc2cccnc2Cl)N(c2ccc(OC)cc2[N+](=O)[O-])C(c2ccc(C)cc2)=CC1c1ccc(OC)cc1OC` (stereo not given), the TGI is 35 µM.

In a further test the test system is HOP-92 NSCLC. Kind of test: NCI anticancer screen, dose series, 48 h.
Turning to `O=c1oc2ccccc2cc1-c1cn2ccccc2n1`, the TGI was more than 100 µM.

As to `[N-]=[N+]=NC1C(O)C(CO)OC1n1ccc(=O)[nH]c1=O` (stereo not given), the TGI is more than 875 µM.

As for `O=C(Nc1nncs1)NS(=O)(=O)n1c(=S)sc2ccccc21`, the TGI is more than 100 µM.

For the molecule `COC(=O)CC1C=CC(C)(OC)OO1` (stereo not given), the TGI was more than 100 µM.

`COC(=O)C1=C(C(=O)Nc2cccnc2Cl)N(c2ccc(OC)cc2[N+](=O)[O-])C(c2ccc(C)cc2)=CC1c1ccc(OC)cc1OC` (stereo not given) gave a TGI of more than 100 µM.

Another test has as its system M14 melanoma. Kind of test: NCI anticancer screen, dose series, 48 h.
As for `O=c1oc2ccccc2cc1-c1cn2ccccc2n1`, the TGI stood at 28.9 µM.

As for `[N-]=[N+]=NC1C(O)C(CO)OC1n1ccc(=O)[nH]c1=O` (stereo not given), the TGI was more than 875 µM.

Molecule `O=C(Nc1nncs1)NS(=O)(=O)n1c(=S)sc2ccccc21` came in with a TGI of more than 100 µM.

The molecule `COC(=O)CC1C=CC(C)(OC)OO1` (stereo not given) showed a TGI of more than 100 µM.

In the case of `COC(=O)C1=C(C(=O)Nc2cccnc2Cl)N(c2ccc(OC)cc2[N+](=O)[O-])C(c2ccc(C)cc2)=CC1c1ccc(OC)cc1OC` (stereo not given), the TGI was more than 72.5 µM.

For the next test, the system named is EKVX NSCLC. Kind of test: NCI anticancer screen, dose series, 48 h.
Take `O=c1oc2ccccc2cc1-c1cn2ccccc2n1`: the TGI was found to be 29.3 µM.

Turning to `[N-]=[N+]=NC1C(O)C(CO)OC1n1ccc(=O)[nH]c1=O` (stereo not given), the TGI was more than 875 µM.

Turning to `O=C(Nc1nncs1)NS(=O)(=O)n1c(=S)sc2ccccc21`, the TGI is more than 100 µM.

With `COC(=O)CC1C=CC(C)(OC)OO1` (stereo not given), the TGI was more than 100 µM.

Take `COC(=O)C1=C(C(=O)Nc2cccnc2Cl)N(c2ccc(OC)cc2[N+](=O)[O-])C(c2ccc(C)cc2)=CC1c1ccc(OC)cc1OC` (stereo not given): the TGI was more than 81.9 µM.

Another test deals with A498 renal. Kind of test: NCI anticancer screen, dose series, 48 h.
In turn, `O=c1oc2ccccc2cc1-c1cn2ccccc2n1` showed a TGI of 6.49 µM.

Regarding `[N-]=[N+]=NC1C(O)C(CO)OC1n1ccc(=O)[nH]c1=O` (stereo not given), the TGI was more than 875 µM.

With `O=C(Nc1nncs1)NS(=O)(=O)n1c(=S)sc2ccccc21`, the TGI is more than 100 µM.

Regarding `COC(=O)CC1C=CC(C)(OC)OO1` (stereo not given), the TGI was more than 100 µM.

The molecule `COC(=O)C1=C(C(=O)Nc2cccnc2Cl)N(c2ccc(OC)cc2[N+](=O)[O-])C(c2ccc(C)cc2)=CC1c1ccc(OC)cc1OC` (stereo not given) displayed a TGI of 50.6 µM.

The subject of another test is SK-MEL-28 melanoma. The test can be described thus: NCI anticancer screen, dose series, 48 h.
Turning to `O=c1oc2ccccc2cc1-c1cn2ccccc2n1`, the TGI turned out to be 17.7 µM.

The molecule `[N-]=[N+]=NC1C(O)C(CO)OC1n1ccc(=O)[nH]c1=O` (stereo not given) yielded a TGI of more than 875 µM.

As for `O=C(Nc1nncs1)NS(=O)(=O)n1c(=S)sc2ccccc21`, the TGI is more than 100 µM.

`COC(=O)CC1C=CC(C)(OC)OO1` (stereo not given) came in with a TGI of more than 100 µM.

As to `COC(=O)C1=C(C(=O)Nc2cccnc2Cl)N(c2ccc(OC)cc2[N+](=O)[O-])C(c2ccc(C)cc2)=CC1c1ccc(OC)cc1OC` (stereo not given), the TGI is more than 100 µM.
